According to patent US20060018981A1, “Sanitization process by using bacteriostatic or bactericidal products derived from vegetables” (priority 2004, published 2006):

Assay type: physicochemical
Experimental: Substances B and C Evaporation Rate at Room Temperature Substances B and C were inserted in a thermostated chamber at room temperature and the substance weight/surface ratio for both of them was evaluated. Both substances B and C, alone or in mixture with a gel, were controlled and the loss of weight versus time was recorded. The resulting data of the test were interpolated so as to obtain two algorithms indicating, respectively, the evaporation rate of B and C. To this end two different interpolation methods were used. The algorithm adopted for the first interpolation method is: po/[…] uti (1) The algorithm adopted for the second interpolation method is: po/p=(A×T1⁄2)/(T1⁄2+min uti) (2) Parameters used in algorithms (1) and (2) have the following meaning: p: initial weight of the antibacterial substances expressed in g; po: weight of the antibacterial substances at time t, expressed in g; a, b, A: correlation parameters; and T1⁄2: half-life time of the antibacterial substances.

lavender oil [C: lavender oil]
parameter T1/2 (half-life time of the antibacterial substances): 46856

silvester pine oil [B: silvester pine oil]
parameter T1/2 (half-life time of the antibacterial substances): 854737
